Results: patent US6030823A, “D-aminoacylase” (Daicel Chemical Industries, Ltd., priority 1998, dated 2000)

Tested on: D-aminoacylase derived from Sebekia benihana IFO14309
Test: Substrate specificity of the aminoacylase
Format: biochemical
Details: 20 mM substrate, 50 mM Tris-HCl pH 7.5, 30° C., 5 min
Experimental: The substrate specificity of the aminoacylase was examined using N-acetyl-D-methionine, N-acetyl-D-alanine, N-acetyl-D-aspartic acid, N-acetyl-D-leucine, N-acetyl-D-phenylalanine, N-acetyl-D-tryptophan, N-acetyl-D-valine, N-acetyl-L-leucine, N-acetyl-L-methionine, and N-acetyl-L-valine as substrates. The enzyme activity was assayed as follows. A 0.050-ml aliquot of an enzyme solution was added to 0.950 ml of 20 mM N-acetyl-D(or L)-amino acid in 50 mM Tris-HCl buffer (pH 7.5) and incubated at 30° C. for 5 min. The reaction was then stopped by adding 0.50 ml of a TCA solution to the reaction mixture. The relative activity is shown in Table 5, taking the activity for N-acetyl-L-methionine as 100%.

Relative activity	Compound
100%	CC(=O)N[C@H](Cc1ccccc1)C(=O)O [N-Ac-D-Phe, N-acetyl-D-phenylalanine]
64%	CC(=O)N[C@H](Cc1c[nH]c2ccccc12)C(=O)O [N-Ac-D-Trp, N-acetyl-D-tryptophan]
33%	CC(=O)N[C@@H](C(=O)O)C(C)C [N-Ac-D-Val, N-acetyl-D-valine]
0%	CC(=O)N[C@@H](CC(C)C)C(=O)O [N-Ac-L-Leu, N-acetyl-L-leucine]
0%	CSCC[C@H](NC(C)=O)C(=O)O [N-Ac-L-Met, N-acetyl-L-methionine]
0%	CC(=O)N[C@H](C(=O)O)C(C)C [N-Ac-L-Val, N-acetyl-L-valine]
